From US9752175B2, “Systems and methods to detect biofilm streamer growth and their uses” (The Trustees of Princeton University, priority 2014, dated 2017)

Tested on: Pseudomonas aeruginosa PA14
Assay: Microfluidic pressure-driven flow assay (biofilm streamer clogging)
Assay type: cell-based
Conditions: low concentration of tetracycline; microfluidic channel
Protocol: Overnight P. aeruginosa cultures were backdiluted 1:100 in tryptone broth and grown to midlogarithmic phase (OD600=0.5). This culture (100 mL) was used to fill a reservoir connected via Tygon tubing (inner diameter 2.4 mm) to a microfluidic channel made from polydimethylsiloxane (PDMS) (Sylgard 184, Dow Corning). The channels (FIG. 1A) are 90 μm high, 200 μm wide, and constitute the narrowest part of the experimental flow system. Analogous to the inlet, the outlet of the microfluidic channel is also connected to Tygon tubing, and the effluent culture is collected in a dish on an analytical balance. By changing the elevation of the culture reservoir above the effluent collection dish, the applied pressure difference Δp is altered, which alters the flow rate through the channel. Operating this system for 24 h with H2O at a flow rate of 15.7±0.05 μL/min reduced the liquid level in the reservoir to decrease the pressure drop across the channel by 2.1%. […]
The weight of the effluent culture was measured every 4 s on an analytical balance (GD503, Sartorius), controlled with LabVIEW. […]
where the density was assumed to be the density of water, 1 kg/L. T and τ were calculated by fitting the function
[formula] to the measured flow rate Q(t), where Q0 is the flow rate before the clogging transition. […]

CN(C)[C@@H]1C(O)=C(C(N)=O)C(=O)[C@@]2(O)C(O)=C3C(=O)c4c(O)cccc4[C@@](C)(O)[C@H]3C[C@@H]12 [tetracycline]
duration of the clogging transition (τ): no effect
